# Measurements taken from patent publication US8192962B2, “Processes for detecting toxic substances” (Daikin Industries, Ltd., priority 2001, dated 2012).
# Tested on: Transport facilitation protein genes
# Test: DNA chip mRNA expression in yeast, transport facilitation protein genes (Table 5)
# Format: cell-based, Saccharomyces cerevisiae S288C
# Method: Yeast (Saccharomyces cerevisiae S288C (α SUC2mal mel gap2 CUP1)) were incubated at 25° C. on YPD medium (yeast extract 1%, polypepton 2%, glucose 2%). One of toxic chemical substances was added to the cells at logarithmic growth phase, and the cells were further incubated for two hours. Cells were cultured without any chemical substance in the same condition, and were used as control. Concentrations of the chemical substances were defined to inhibit the growth of the yeast but not lead to death.
# After completion of the incubation, the culture was centrifuged to collect the cells. To the cells, sodium acetate buffer (50 mM sodium acetate, 10 mM EDTA, 1% SDS) was added, and the mixture was shaken at 65° C. for five minutes, followed by returning to room temperature, and obtaining the supernatant, of which the procedures were repeated two times. To the supernatant, ½ amount of a solution of phenol/chloroform was added, and the mixture was centrifuged to give a supernatant, which was added with an equal amount of chloroform, and the mixture was centrifuged to give a supernatant. To the supernatant, an equal amount of isopropanol containing 0.3 M sodium acetate was added, and the mixture was allowed to stand at room temperature for 30 minutes, after which the mixture was centrifuged to give a sediment of the whole RNAs. Seventy % ethanol was added to the sediment, and the mixture was again centrifuged to give a sediment, which was then dried and dissolved in water. mRNA was isolated from the whole RNAs as followings. In view of the fact that a poly A chain is attached to the 3′ terminus of mRNA, a polynucleotide having a poly T structure which was immobilized on the surface of latex beads was used to trap the mRNA, and then the mRNA was washed and eluted with spine column (Oligotex-dT30<Super>mRNA Purification Kit, Takara). Reverse transcription of the mRNA was conducted with a reverse transcriptase (Super Script II Reverse Transcriptase; catalogue No. 18064-014, GibcoBRL) using fluorescence-labeled nucleotides to give cDNAs that were introduced with Cy3-dUTP or Cy5-dUTP during the reverse transcription.
# The labeled cDNAs were dissolved in TE buffer (10mM Tris-HCl/1 mM EDTA, pH8.0), and the solution was dropped on the DNA chip containing the whole genes of yeast (DNA Chip Research Inc. Japan) so that the cDNAs were hybridized on the DNA chip at 65° C. for over 12 hours. The fluoresces intensity of the DNA chip was read with a scanner, and the ratio relative to the fluorescence intensity resulting from the absence of chemical substance was estimated as the following, which is shown in Tables 1 to 9: […]
smiles,measurement,setting,value
"[Cl][Cd][Cl] [(2), CdCl2]",The level of expressed mRNA in the presence of chemical substance/The level of expressed mRNA in the absence of chemical substance,yeast gene YGR224W,1.2
same,The level of expressed mRNA in the presence of chemical substance/The level of expressed mRNA in the absence of chemical substance,yeast gene YGR260W,0.7
same,The level of expressed mRNA in the presence of chemical substance/The level of expressed mRNA in the absence of chemical substance,yeast gene YGR281W,1.0
same,The level of expressed mRNA in the presence of chemical substance/The level of expressed mRNA in the absence of chemical substance,yeast gene YHL035C,1.3
same,The level of expressed mRNA in the presence of chemical substance/The level of expressed mRNA in the absence of chemical substance,yeast gene YHL040C,4.9
same,The level of expressed mRNA in the presence of chemical substance/The level of expressed mRNA in the absence of chemical substance,yeast gene YHL047C,4.4
same,The level of expressed mRNA in the presence of chemical substance/The level of expressed mRNA in the absence of chemical substance,yeast gene YHR026W,1.0
same,The level of expressed mRNA in the presence of chemical substance/The level of expressed mRNA in the absence of chemical substance,yeast gene YHR092C,1.0
same,The level of expressed mRNA in the presence of chemical substance/The level of expressed mRNA in the absence of chemical substance,yeast gene YHR094C,1.2
same,The level of expressed mRNA in the presence of chemical substance/The level of expressed mRNA in the absence of chemical substance,yeast gene YHR175W,2.0
same,The level of expressed mRNA in the presence of chemical substance/The level of expressed mRNA in the absence of chemical substance,yeast gene YIL006W,1.1
same,The level of expressed mRNA in the presence of chemical substance/The level of expressed mRNA in the absence of chemical substance,yeast gene YIL022W,0.7
same,The level of expressed mRNA in the presence of chemical substance/The level of expressed mRNA in the absence of chemical substance,yeast gene YIL056W,0.9
same,The level of expressed mRNA in the presence of chemical substance/The level of expressed mRNA in the absence of chemical substance,yeast gene YIL088C,2.1
same,The level of expressed mRNA in the presence of chemical substance/The level of expressed mRNA in the absence of chemical substance,yeast gene YJL034W,1.7
same,The level of expressed mRNA in the presence of chemical substance/The level of expressed mRNA in the absence of chemical substance,yeast gene YJL212C,3.2
same,The level of expressed mRNA in the presence of chemical substance/The level of expressed mRNA in the absence of chemical substance,yeast gene YJL219W,2.5
same,The level of expressed mRNA in the presence of chemical substance/The level of expressed mRNA in the absence of chemical substance,yeast gene YJR077C,1.1
same,The level of expressed mRNA in the presence of chemical substance/The level of expressed mRNA in the absence of chemical substance,yeast gene YJR106W,3.8
same,The level of expressed mRNA in the presence of chemical substance/The level of expressed mRNA in the absence of chemical substance,yeast gene YJR121W,1.1
same,The level of expressed mRNA in the presence of chemical substance/The level of expressed mRNA in the absence of chemical substance,yeast gene YKL016C,1.3
same,The level of expressed mRNA in the presence of chemical substance/The level of expressed mRNA in the absence of chemical substance,yeast gene YKL146W,1.3
same,The level of expressed mRNA in the presence of chemical substance/The level of expressed mRNA in the absence of chemical substance,yeast gene YKR039W,3.5
same,The level of expressed mRNA in the presence of chemical substance/The level of expressed mRNA in the absence of chemical substance,yeast gene YKR067W,2.6
same,The level of expressed mRNA in the presence of chemical substance/The level of expressed mRNA in the absence of chemical substance,yeast gene YLL028W,0.9
same,The level of expressed mRNA in the presence of chemical substance/The level of expressed mRNA in the absence of chemical substance,yeast gene YLR081W,0.8
same,The level of expressed mRNA in the presence of chemical substance/The level of expressed mRNA in the absence of chemical substance,yeast gene YLR295C,1.1
same,The level of expressed mRNA in the presence of chemical substance/The level of expressed mRNA in the absence of chemical substance,yeast gene YLR348C,4.5
same,The level of expressed mRNA in the presence of chemical substance/The level of expressed mRNA in the absence of chemical substance,yeast gene YLR378C,0.9
same,The level of expressed mRNA in the presence of chemical substance/The level of expressed mRNA in the absence of chemical substance,yeast gene YMR011W,1.0
same,The level of expressed mRNA in the presence of chemical substance/The level of expressed mRNA in the absence of chemical substance,yeast gene YMR162C,1.1
same,The level of expressed mRNA in the presence of chemical substance/The level of expressed mRNA in the absence of chemical substance,yeast gene YMR203W,0.7
same,The level of expressed mRNA in the presence of chemical substance/The level of expressed mRNA in the absence of chemical substance,yeast gene YNL055C,1.8
same,The level of expressed mRNA in the presence of chemical substance/The level of expressed mRNA in the absence of chemical substance,yeast gene YNR072W,1.5
same,The level of expressed mRNA in the presence of chemical substance/The level of expressed mRNA in the absence of chemical substance,yeast gene YOL119C,4.8
same,The level of expressed mRNA in the presence of chemical substance/The level of expressed mRNA in the absence of chemical substance,yeast gene YOL156W,0.7
same,The level of expressed mRNA in the presence of chemical substance/The level of expressed mRNA in the absence of chemical substance,yeast gene YOL163W,3.2
same,The level of expressed mRNA in the presence of chemical substance/The level of expressed mRNA in the absence of chemical substance,yeast gene YOR035C,1.2
same,The level of expressed mRNA in the presence of chemical substance/The level of expressed mRNA in the absence of chemical substance,yeast gene YOR130C,1.7
same,The level of expressed mRNA in the presence of chemical substance/The level of expressed mRNA in the absence of chemical substance,yeast gene YOR153W,0.9
same,The level of expressed mRNA in the presence of chemical substance/The level of expressed mRNA in the absence of chemical substance,yeast gene YOR273C,1.0
same,The level of expressed mRNA in the presence of chemical substance/The level of expressed mRNA in the absence of chemical substance,yeast gene YOR316C,2.5
same,The level of expressed mRNA in the presence of chemical substance/The level of expressed mRNA in the absence of chemical substance,yeast gene YOR328W,1.0
same,The level of expressed mRNA in the presence of chemical substance/The level of expressed mRNA in the absence of chemical substance,yeast gene YOR332W,1.0
same,The level of expressed mRNA in the presence of chemical substance/The level of expressed mRNA in the absence of chemical substance,yeast gene YOR348C,0.7
same,The level of expressed mRNA in the presence of chemical substance/The level of expressed mRNA in the absence of chemical substance,yeast gene YPL036W,0.8
same,The level of expressed mRNA in the presence of chemical substance/The level of expressed mRNA in the absence of chemical substance,yeast gene YPL134C,1.0
same,The level of expressed mRNA in the presence of chemical substance/The level of expressed mRNA in the absence of chemical substance,yeast gene YPL271W,3.2
same,The level of expressed mRNA in the presence of chemical substance/The level of expressed mRNA in the absence of chemical substance,yeast gene YPR192W,1.1
same,The level of expressed mRNA in the presence of chemical substance/The level of expressed mRNA in the absence of chemical substance,yeast gene YPR194C,1.4
